Data: the supplement of paper PMC10307832

Compound: O=C(CCCCCCC(=O)Nc1ccccc1)NO [Vorinostat]
Experiment: relative viability (nuclei count vs DMSO), 5 days (fraction); higher = more cells survive
In short: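 Lung cancer cell lines in 1536-well plates were kept overnight at 37 °C, then pinned with five library-drug doses (not always all listed) spaced by √10 on vehicle-anchored plates. After 5 days without medium change, cells were fixed, permeabilised and Hoechst-stained in one step, imaged at 4×, and nuclei were counted with MetaXpress. Viability is treated-well nuclei divided by vehicle-well nuclei, taken as the median over plates. Plates passed only with control CV below 25% and at least one doubling.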

Row | Cell Line | relative viability (0.253 µM) | relative viability (0.8 µM) | relative viability (1 µM, anchor plate) | relative viability (2.53 µM) | relative viability (8 µM)
1 | CAL-12T | 1.13 | 1.09 | 0.807 | 0.537 | 0.137
2 | NCI-H2009 | 1.14 | 0.878 | 0.711 | 0.482 | 0.153
3 | EMC-BAC-2 | 0.92 | 0.752 | 0.493 | 0.363 | 0.176
4 | ABC-1 | 1.16 | 0.707 | 1.23 | 0.32 | 0.171
5 | LK-2 | 1.18 | 0.67 | 0.309 | 0.207 | 0.0969
6 | LC-2-ad | 0.989 | 0.722 | 0.691 | 0.228 | 0.155
7 | ChaGo-K-1 | 1.09 | 0.858 | 0.759 | 0.761 | 0.343
8 | 201T | 1.07 | 0.848 | 0.946 | 0.855 | 0.324
9 | NCI-H1563 | 1.07 | 0.856 | – | 0.629 | 0.513
10 | RERF-LC-KJ | 1.04 | 0.911 | 0.698 | 0.405 | 0.246
11 | NCI-H2342 | 0.936 | 1.02 | 0.756 | 0.756 | 0.458
12 | LOU-NH91 | 1.09 | 0.918 | 0.94 | 0.829 | 0.423
13 | NCI-H1944 | 0.927 | 0.707 | 0.57 | 0.341 | 0.21
14 | HCC-366 | 1.01 | 0.956 | 0.371 | 0.524 | 0.045
15 | SW 1573 | 1.25 | 0.938 | 0.84 | 0.485 | 0.0973
16 | SK-MES-1 | 1.11 | 1.02 | 1.08 | 0.555 | 0.203
17 | NCI-H1993 | 1.08 | 1 | 0.823 | 0.705 | 0.56
18 | NCI-H1703 | 1.41 | 1.39 | – | 1.03 | 0.244
19 | HARA | 1.03 | 0.593 | 0.561 | 0.434 | 0.121
20 | COR-L23 | 1.09 | 0.763 | 0.426 | 0.18 | 0.0822
21 | NCI-H1355 | 1.16 | 0.852 | 0.673 | 0.598 | 0.192
22 | NCI-H1437 | 1.04 | 0.831 | 0.861 | 0.421 | 0.184
23 | NCI-H2023 | 1.22 | 0.771 | 0.709 | 0.209 | 0.0744
24 | HOP-62 | 1.2 | 0.882 | 0.679 | 0.528 | 0.113
25 | NCI-H2087 | 1.03 | 0.634 | 0.737 | 0.246 | 0.0956

Row | Cell Line | relative viability (0.253 µM) | relative viability (0.8 µM) | relative viability (1 µM, anchor plate) | relative viability (2.53 µM) | relative viability (8 µM)
26 | SK-LU-1 | 1.19 | 0.924 | 0.781 | 0.668 | 0.19
27 | NCI-H1755 | 1.08 | 1.01 | 0.735 | 0.566 | 0.292
28 | NCI-H1395 | 0.91 | 0.919 | 0.834 | 0.631 | 0.387
29 | SW 900 | 0.653 | 0.644 | 0.576 | 0.391 | 0.128
30 | NCI-H1793 | 1.37 | 0.951 | 0.821 | 0.817 | 0.29
31 | NCI-H727 | 1.11 | 0.813 | 1.19 | 0.514 | 0.31
32 | LCLC-103H | 1.08 | 0.961 | 0.781 | 0.812 | 0.272
33 | EKVX | 1.09 | 1.01 | 0.77 | 0.688 | 0.175
34 | LXF-289 | 1.1 | 1.01 | 0.791 | 0.624 | 0.195
35 | HCC-827 | 1.15 | 1.12 | 0.882 | 0.934 | 0.416
36 | A549 | 1.05 | 0.848 | – | 0.337 | 0.0442
37 | NCI-H3122 | 1.06 | 1.04 | 0.986 | 0.737 | 0.156
38 | HCC-15 | 1.16 | 0.909 | 0.885 | 0.655 | 0.145
39 | NCI-H441 | 1.13 | 1.05 | 0.773 | 0.418 | 0.18
40 | HCC-78 | 0.963 | 0.674 | 0.468 | 0.3 | 0.221
41 | H3255 | 1.02 | 1.13 | 0.791 | 0.573 | 0.286
42 | NCI-H322M | 1.17 | 0.87 | 0.915 | 0.6 | 0.385
43 | NCI-H838 | 1.15 | 1.03 | 0.763 | 0.565 | 0.191
44 | NCI-H2170 | 1.08 | 0.969 | 0.847 | 0.539 | 0.158
45 | NCI-H1734 | 1.28 | 0.982 | 0.832 | 0.688 | 0.15
46 | NCI-H23 | 1.14 | 0.985 | 0.653 | 0.541 | 0.136
47 | NCI-H596 | 1.03 | 0.799 | 0.621 | 0.797 | 0.311
48 | A-427 | 1.15 | 0.972 | 0.862 | 0.517 | 0.176
49 | NCI-H460 | 1.09 | 0.955 | 0.715 | 0.144 | 0.0458
50 | HCC-44 | 0.995 | 0.91 | 1.09 | 0.654 | 0.161

Row | Cell Line | relative viability (0.253 µM) | relative viability (0.8 µM) | relative viability (1 µM, anchor plate) | relative viability (2.53 µM) | relative viability (8 µM)
51 | NCI-H2085 | 1.05 | 0.939 | 0.815 | 0.714 | 0.369
52 | NCI-H2405 | 1.05 | 1.17 | 1.01 | 0.57 | 0.144
53 | BEN | 1.04 | 0.678 | 0.597 | 0.248 | 0.0942
54 | LCLC-97TM1 | 0.979 | 1.07 | 0.711 | 0.715 | 0.1
55 | NCI-H1651 | 1.01 | 0.928 | 0.579 | 0.203 | 0.0791
56 | NCI-H1915 | 1.12 | 0.878 | 0.524 | 0.514 | 0.123
57 | UMC-11 | 1.1 | 0.617 | 0.403 | 0.201 | 0.103
58 | NCI-H358 | 1.33 | 1.05 | 0.697 | 0.255 | 0.118
59 | NCI-H650 | 0.939 | 0.792 | 0.457 | 0.481 | 0.158
60 | NCI-H2228 | 0.93 | 0.802 | 0.654 | 0.476 | 0.146
61 | LU99A | 1.1 | 0.809 | 0.537 | 0.513 | 0.209
62 | NCI-H1792 | 0.965 | 0.762 | – | 0.371 | 0.108
63 | NCI-H522 | 1.1 | 0.869 | 0.962 | 0.768 | 0.299
64 | NCI-H1666 | 1.05 | 0.955 | 1.01 | 0.514 | 0.348
65 | COR-L 105 | 1.42 | 0.858 | 0.868 | 0.501 | 0.237
66 | NCI-H520 | 1.35 | 0.955 | 0.745 | 0.503 | 0.175
67 | NCI-H2126 | 1.03 | 0.875 | 0.769 | 0.655 | 0.257
68 | PC-14 | 1.25 | 0.886 | 0.725 | 0.171 | 0.051
69 | NCI-H2347 | 1.11 | 0.962 | 0.61 | 0.777 | 0.262
70 | NCI-H1975 | 1.08 | 0.817 | 0.707 | 0.449 | 0.14
71 | IA-LM | 0.976 | 0.723 | 0.963 | 0.349 | 0.0685
72 | PC-3 [JPC-3] | 1.12 | 0.988 | 0.921 | 0.608 | 0.312
73 | EPLC-272H | 0.976 | 0.767 | 0.533 | 0.373 | 0.157
74 | NCI-H647 | 1.16 | 0.731 | 0.539 | 0.199 | 0.0541
75 | NCI-H661 | 1.11 | 0.974 | 0.8 | 0.548 | 0.351
